The values that follow come from patent US20050271637A1, “BMP-2 estrogen responsive element and methods of using the same” (priority 2002, published 2005).

The test system of experiment [1] is mouse BMP-2 mRNA. Kind of experiment: Real-time RT-PCR of BMP-2 mRNA in bone marrow MSCs from OVX mice. Format: cell-based. The following applies: 100 nM E2, 24 hr. How it is done:
Two months old Swiss-Webster female mice (ICR) were OVX in accordance with mandated standards of humane care, and the animals were maintained in accordance with the NIH Guide for the Care and Use of Laboratory Animals. After 5 months post-surgery, bone marrow was isolated from femurs and tibias, and the MSCs were cultured as described previously (Gazit et al. 1999 and Zhou et al. 2001). The bone marrow cells were maintained in DMEM (Phenol red free, 1.0 g/L glucose, Biological Industries, Israel) with 15% FBS (Charcoal stripped, heat-inactivated), 100 units/ml penicillin, 100 μg/ml streptomycin, and 2 mM glutamine. […]
(§1) RNA was isolated using TRizol Reagent (Life Technologies, USA), according to the manufacturer's protocol. Semi-quantitative RT-PCR was performed as described previously (Zhou et al. 2001). […]
Real-Time PCR was performed using a Roche LightCycler according to the manufacturer's protocol (Roche Molecular Biochemicals, USA). […] Fluoresence was measured at 82° C. for 5 s. To quantify the copy number of the mouse BMP-2 mRNA in MSCs, pGEM-T-mouse BMP-2 plasmids ([…]) were used in standard curve.
All experiments were performed three to five times independently. […] The semi-quantitative RT-PCR and real-time RT-PCR were performed 3 times in independent experiments using total RNA that was isolated from MSCs derived from 3-6 animals each time. […]
On the technique in general: Quantitative PCR measures a nucleic acid by following its amplification.

Experiment [2] deals with mouse BMP-2 mRNA. As to the kind of experiment: Semi-quantitative RT-PCR of BMP-2 mRNA in MSCs from OVX mice. It is filed as cell-based. Conditions: for BMP-2 mRNA expression, effect of the substance alone: E2 100 nM, ICI 10 μM, tamoxifen 1.0 μM, raloxifene 100 nM. How it is done:
(§2) Two months old Swiss-Webster female mice (ICR) were OVX in accordance with mandated standards of humane care, and the animals were maintained in accordance with the NIH Guide for the Care and Use of Laboratory Animals. After 5 months post-surgery, bone marrow was isolated from femurs and tibias, and the MSCs were cultured as described previously (Gazit et al. 1999 and Zhou et al. 2001). The bone marrow cells were maintained in DMEM (Phenol red free, 1.0 g/L glucose, Biological Industries, Israel) with 15% FBS (Charcoal stripped, heat-inactivated), 100 units/ml penicillin, 100 μg/ml streptomycin, and 2 mM glutamine. At day 4, the cultures were supplemented with 50 μg/ml ascorbic acid, 10 mM β-glycerophosphate, and 10 nM dexamethasone. From day 10, the cells were cultured in DMEM with 2% charcoal stripped (CS)-FBS without osteogenic supplements. […] RNA then was isolated at day 12. […] Mouse C3H10T1/2 cells were cultivated in DMEM (Sigma and Biological Industries) with 10% FBS, 100 units/ml penicillin, 100 μg/ml streptomycin, and 2 mM glutamine.
RNA was isolated using TRizol Reagent (Life Technologies, USA), according to the manufacturer's protocol. Semi-quantitative RT-PCR was performed as described previously (Zhou et al. 2001). Mouse BMP-2 (505 bp) (Zhou et al. 2001), internal control RPL19 (190 bp) (Orly et al. 1994) and c-myc (550 bp) (Goswami et al. 1997) primers were described previously. The PCR conditions used for mouse BMP-2 RT-PCR were 30 cycles of 94 C for 1 min, 55 C for 1 min and 72 for 2 min in an MJ MiniCycler (MJ Research, USA). RT-PCR products of mouse BMP-2 were cloned into the pGEM-T Easy vector (A1360, Promega), and the pGEM-T-mouse BMP-2 vectors were sequenced by a T7 sequence sequencing kit (US70770, USB, Cleveland, USA) according to the manufacturer's protocols. DNA sequence analysis confirmed that mouse BMP-2 had been amplified.
All experiments were performed three to five times independently. Data re presented as the mean values±the standard error of the mean. The semi-quantitative RT-PCR and real-time RT-PCR were performed 3 times in independent experiments using total RNA that was isolated from MSCs derived from 3-6 animals each time. Quantitative data were analyzed using either the non-parameteric Mann-Whitney test or the ANOVA test.

A further experiment has as its system c-myc mRNA. Kind of experiment: Semi-quantitative RT-PCR of c-myc mRNA in MSCs from OVX mice. It is filed as cell-based, mouse. The following applies: 5.0 μM cycloheximide. How it is done:
as §2, §1

In another experiment the target is human ERβ (Homo sapiens, UniProt Q92731). As to the kind of experiment: Mouse BMP-2 promoter-luciferase assay in C3H10T1/2 cells co-transfected with human ERβ. Conditions: 24 hr; E2 different doses or 10 nM, raloxifene 100 nM, tamoxifen 1.0 μM, genistein 100 nM.
human ERβ, sequence (Q92731 46-530 limits assumed): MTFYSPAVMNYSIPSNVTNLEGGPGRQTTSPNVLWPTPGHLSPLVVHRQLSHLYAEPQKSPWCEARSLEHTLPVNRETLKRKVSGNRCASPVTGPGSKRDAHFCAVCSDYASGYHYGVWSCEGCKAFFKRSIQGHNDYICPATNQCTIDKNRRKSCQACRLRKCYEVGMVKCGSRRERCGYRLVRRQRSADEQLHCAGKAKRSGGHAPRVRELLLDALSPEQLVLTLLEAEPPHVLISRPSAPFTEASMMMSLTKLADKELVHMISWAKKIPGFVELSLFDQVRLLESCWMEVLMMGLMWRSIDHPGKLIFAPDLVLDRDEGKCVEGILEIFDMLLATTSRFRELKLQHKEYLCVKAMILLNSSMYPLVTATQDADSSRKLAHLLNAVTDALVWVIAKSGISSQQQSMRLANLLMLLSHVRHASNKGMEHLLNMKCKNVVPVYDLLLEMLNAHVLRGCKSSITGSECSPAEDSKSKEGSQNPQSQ

Entries after “also recorded” stand apart in the source; their conditions may differ.

Regarding `C[C@]12CC[C@@H]3c4ccc(O)cc4CC[C@H]3[C@@H]1CC[C@@H]2O` [E2, estradiol], the “increase of mouse BMP-2 mRNA levels” value in the experiment on mouse BMP-2 mRNA [1] (versus untreated) was determined as 2.4 fold. The “mouse BMP-2 mRNA levels” value in the experiment with mouse BMP-2 mRNA [1] (in 2 μg of total RNA, untreated 570±81 copies, p<0.05, ANOVA) is recorded as 1337±177 copies.
With `C[C@@H]1C[C@@H]([C@H](O)CC2CC(=O)NC(=O)C2)C(=O)[C@@H](C)C1` [cycloheximide], the “effect on up-regulation of BMP-2 mRNA by E2” value with mouse BMP-2 mRNA [2] (5.0 μM cycloheximide added 45 min before 100 nM E2, RNA 4 hr after E2) is reported as “did not block”. The “c-myc mRNA levels” value in the experiment with c-myc mRNA is recorded as “super-induction; also recorded: superinduction”.
`CC/C(=C(\c1ccccc1)c1ccc(OCCN(C)C)cc1)c1ccccc1` [tamoxifen]: the “BMP-2 mRNA expression, effect of the substance alone” value (shortened to “BMP-2 mRNA expression, effect”) with mouse BMP-2 mRNA [2] (24 hr) is reported as “failed to activate”.
On to `O=C(c1ccc(OCCN2CCCCC2)cc1)c1c(-c2ccc(O)cc2)sc2cc(O)ccc12` [raloxifene], for which the “BMP-2 mRNA expression, effect” value in the experiment with mouse BMP-2 mRNA [2] (24 hr) is listed as “failed to activate”. In addition, the “full-length mouse BMP-2 promoter (−2712) activity via ERβ” value at human ERβ is reported as “not via ERβ”.
For the compound `C[C@]12CC[C@@H]3c4ccc(O)cc4C[C@@H](CCCCCCCCC[S+]([O-])CCCC(F)(F)C(F)(F)F)[C@H]3[C@@H]1CC[C@@H]2O` (stereo partly drawn) [ICI-182,780], the “BMP-2 mRNA expression, effect” value with mouse BMP-2 mRNA [2] (24 hr, listed as ICI) is given as “had no effect; also recorded: failed to activate”. Further, the “effect on up-regulation of BMP-2 mRNA expression by E2” value with mouse BMP-2 mRNA [2] (ICI 10 μM with E2 100 nM, 24 hr, listed as ICI) is listed as “blocked; also recorded: inhibited”.
